Values of other authors in US9173850B2, “4-methylpyrazole formulations” (RAPTOR PHARMACEUTICALS INC., priority 2009, dated 2015).

Test system: ethanol intolerance
Settings: doses below 10 mg/kg; subjects with reduced or absent ALDH activity who have consumed alcohol

Question: Which “Effectiveness in treating ethanol intolerance or symptoms of aldehyde accumulation” value does the source give for `Cc1cn[nH]c1` [Formulation 4-MP, 4-Methylpyrazole] here?
Answer: effective
